Assay results from US20090246519A1 (priority 2008, published 2009).

Legend:
Strains in all clusters = format: cell-based
[1] = tested on: Cluster 2 strains 28A, 6A; format: cell-based, Bacillus sp.; settings: highest level of tellurite tolerated by strains when grown on LB-Marine plates
[2] = tested on: Cluster 1 strains 1A, 13B, 30B; format: cell-based, Rhodotorula mucilaginosa; settings: highest level of tellurite tolerated by strains when grown on LB-Marine plates
Cluster 3 strain 14B = format: cell-based, Virgibacillus halodenitrificans

Molecule | Resistance of strains to oxyanion (Strains in all clusters) | Maximum [TeO3^2−] [1] [µg/mL] | Maximum [TeO3^2−] [2] [µg/mL] | Growth of strain 14B in the presence of tellurite (Cluster 3 strain 14B; 150 μg Na2TeO3 ml^−1, on plates and in liquid cultures) | Maximum [TeO3^2−] (Cluster 3 strain 14B; highest level of tellurite tolerated by strains when grown on LB-Marine plates, cluster 3) [µg/mL]
O=[Se](=O)(O)O [selenate] | resistant |  |  |  | 
arsenate | resistant |  |  |  | 
O=[Te](=O)(O)O [tellurate] | resistant |  |  |  | 
sodium tellurite [TeO3^2−] |  | 300 | 600 | grows poorly | 75 to 150
